Source: patent US20130236568A1, “PHOSPHAPLATINS HAVING ANTI-ANGIOGENIC, ANTI-METASTATIC, AND PRO-APOPTOTIC PROPERTIES AND USES THEREOF” (Ohio University, priority 2011, published 2013)

Legend:
BID = assay: Expression of key genes with and without p53 inhibitor (Table 3): BID; format: cell-based, human; details: positive = manifold increase, negative = decrease vs untreated cells
Protocol: (§1) Quantitative real-time PCR experiments were performed to estimate the expression of a selection of targeted genes. HUVEC cells (Lonza Walkersville, Frederick, Md.) were cultured on 0.1% gelatin-coated petri dishes by following standard protocols recommended by the vendor in a humidified incubator by maintaining 5% CO2 at 37° C. Human epithelial ovarian cancer cells (A2780) and cisplatin-resistant cells (A2780/C30) were cultured in RPMI 1640 with or without cisplatin (7 μM) and pyrodach-4 (180 μM) for 0, 3, 12 and 24 hours. […] HUVECs were treated with or without cisplatin (7 μM) or pyrodach-4 (90 or 180 μM) for various durations ranging from 1 hr. to 6 hrs.
(§2) Both treated and untreated cancer cells were maintained in RPMI 1640 medium with 10% fetal bovine serum, 2 μmol L-glutamine, 100 units/mL penicillin-streptomycin and 0.25 units/mL insulin solution, at 37° C. with 5% CO2. RNA was isolated from both the treated and untreated cells. […] The quantity and purity of RNA were determined by UV spectroscopy (NanoDrop 2000 Thermo Scientific, Wilmington, Del.). A minimum absorbance ratio index (ratio of the absorbance measured at 260 nm over that at 280 nm) of 1.9 was used as an acceptable purity. […] The target gene was labeled with a blue dye (FAM, absorbance: 494 nm, emission: 518 nm) while the reference gene was tagged with a green dye (VIC, absorbance: 538 nm, emission: 554 nm). […]

[1] = tested on: yeast deletion collection; assay: Genome-wide fitness assay in yeast (pooled deletion strains); format: cell-based
Excerpt: The around 6000 strains in the yeast deletion collection can be studied in a single culture by using a microarray to detect the 20 bp DNA “barcodes” or “tags” contained in each strain. Barcode intensities are compared across time-points or across conditions to analyze the relative fitness of each strain. This development of the pooled fitness assay has greatly facilitated the functional annotation of the yeast genome by making genome-wide gene-deletion studies faster and easier, and has led to the development of high throughput methods for studying drug action in yeast. Pooled screens can be used for identifying gene functions, measuring the functional relatedness of gene pairs in order to group genes into pathways, identifying drug targets, and determining a drug's mechanism of action. This process involves five main steps: preparing aliquots of pooled cells, pooled growth, isolation of genomic DNA and PCR amplification of the barcodes, array hybridization (or next generation sequencing), and data analysis.
The pooled fitness assay involves five main steps (FIG. 3). First, the deletion collection is grown on solid media in arrayed format and the resulting cells are pooled and frozen to make cell aliquots that will be used for starting growth experiments. Cells are then grown in the desired conditions, typically for 5 to 20 generations. The barcodes from the resulting cell samples are prepared for hybridization by isolation of the genomic DNA and PCR amplification of the barcodes. The barcodes are amplified in two reactions to prevent crosstalk between the uptag and downtag primers. The resulting PCR products are then hybridized to tag arrays with one array needed per cell sample. Data is then analyzed to determine differences in strain representation between pairs of samples.
To analyze the genome wide effects of pyrodach-2 and -4, we screened 2 collections of strains, 1200 essential genes as heterozygote deletion mutants (reducing functional gene dose from 2 to 1) and 4800 non-essential genes as complete deletions (reducing functional gene dose from 2 to 0). Both compounds were screened at the highest dose possible (200 μM final concentration) to increase the likelihood of finding compound-specific sensitive strains.
Fitness profiling of pooled deletion strains involves […] main steps: • 1. Strains are first pooled at approximately equal abundance. • 2. The pool is grown competitively in the condition of choice and a control condition. If a gene is sensitive to the treatment condition, the strain carrying this deletion will grow more slowly and become under-represented relative to the control culture (purple strain). Resistant strains will grow faster and become over-represented (not shown). • 3. Genomic DNA is isolated from cells harvested at the end of pooled growth, and barcodes are amplified from the genomic DNA with universal primers. • 4. PCR products are then hybridized to an array that detects the tag sequences, giving tag intensities for the two samples. • 5. The treatment and control sample are then compared to determine the relative fitness of each strain. Note that only the purple strain is described as sensitive to the condition. While the red strain grows more slowly than the blue strain in the treatment, this growth difference in not of interest because it matches that seen in the control.

VEGFR2 gene = assay: Quantitative real-time PCR, VEGFR2 gene expression in HUVEC cells; format: cell-based, human
Protocol: (§3) Evaluations of selected gene expressions in Human Umbilical Vein Endothelial Cells (HUVEC) and Human Ovarian Cancer Cells by quantitative reverse transcriptase polymerase chain reaction (PCR)
(§4) Quantitative real-time PCR experiments were performed to estimate the expression of a selection of targeted genes. HUVEC cells (Lonza Walkersville, Frederick, Md.) were cultured on 0.1% gelatin-coated petri dishes by following standard protocols recommended by the vendor in a humidified incubator by maintaining 5% CO2 at 37° C. […]
as §2, with “CO2.” for “CO2. RNA was isolated from both the treated and untreated cells.”
(§5) The threshold cycle number (Ct), the point at which the fluorescence of the qPCR reaction just exceeds the threshold fluorescence of the detection system, was determined. […]

PTEN = assay: Quantitative real-time PCR, PTEN expression in A2780/C30 cells; format: cell-based, human
Protocol: as §3, §4
as §2, with “CO2.” for “CO2. RNA was isolated from both the treated and untreated cells.”
as §5

BAX = assay: Expression of key genes with and without p53 inhibitor (Table 3): BAX; format: cell-based, human; details: positive = manifold increase, negative = decrease vs untreated cells
Protocol: as §1, §2

trans-(±)-1,2-cyclohexanediamine-trans-dihydroxo(pyrophosphato) platinum(IV) [Pyrodach-4]
Expression of BID (BID; Pyrodach-4 + PFT-α): 1.0 | Expression of BID (BID; Pyrodach-4 treatment only): 1.8 | Tolerability by the yeast cell (few sensitive strains) ([1]; highest dose possible, 200 μM final concentration): well tolerated by the cell | Functions enriched among sensitive strains ([1]; yeast deletion strains, 200 μM final concentration): 1) iron and copper transport and 2) metal-regulated transcription factors | Sensitivity of DNA damage/repair genes (NER, HRR, PRR) ([1]; yeast deletion strains, phosphaplatins at 200 μM final concentration): not a single gene involved in DNA repair or other DNA metabolic processes showed any sensitivity as a mutant | Suppression of VEGFR-2 expression (VEGFR2 gene): ≤ 50% | Normalized expression of VEGFR2 gene (VEGFR2 gene; positive = manifold increase, negative = relative decrease vs untreated cells, pyrodach-4 90 or 180 μM, 1 to 6 hrs): −2.0 | Expression of the PTEN gene compared to control (PTEN): 2.3 fold | Normalized expression of PTEN (PTEN; pyrodach-4 alone, control = 1.0): 2.3 | Expression of BAX (BAX; Pyrodach-4 + PFT-α (p53 inhibitor)): 1.0 | Expression of BAX (BAX; Pyrodach-4 treatment only, cell line not given): 2.8
